Measurements: patent publication US10844077B2, “Thiazolyl-containing compounds for treating proliferative diseases” (Dana-Farber Cancer Institute, Inc., priority 2014, dated 2020)
Several values for one entry are separate records, joined by “and”; a condition that tells them apart may be missing. Equal entries are not always repeated.

How the values were obtained:
ACK = ACK (Homo sapiens (Human), UniProt Q07912); experiment: KINATIV assay; assay type: cell-based; conditions: 1 μM, 90 minutes, BCWM.1 cells
ACK, sequence (Q07912 whole entry): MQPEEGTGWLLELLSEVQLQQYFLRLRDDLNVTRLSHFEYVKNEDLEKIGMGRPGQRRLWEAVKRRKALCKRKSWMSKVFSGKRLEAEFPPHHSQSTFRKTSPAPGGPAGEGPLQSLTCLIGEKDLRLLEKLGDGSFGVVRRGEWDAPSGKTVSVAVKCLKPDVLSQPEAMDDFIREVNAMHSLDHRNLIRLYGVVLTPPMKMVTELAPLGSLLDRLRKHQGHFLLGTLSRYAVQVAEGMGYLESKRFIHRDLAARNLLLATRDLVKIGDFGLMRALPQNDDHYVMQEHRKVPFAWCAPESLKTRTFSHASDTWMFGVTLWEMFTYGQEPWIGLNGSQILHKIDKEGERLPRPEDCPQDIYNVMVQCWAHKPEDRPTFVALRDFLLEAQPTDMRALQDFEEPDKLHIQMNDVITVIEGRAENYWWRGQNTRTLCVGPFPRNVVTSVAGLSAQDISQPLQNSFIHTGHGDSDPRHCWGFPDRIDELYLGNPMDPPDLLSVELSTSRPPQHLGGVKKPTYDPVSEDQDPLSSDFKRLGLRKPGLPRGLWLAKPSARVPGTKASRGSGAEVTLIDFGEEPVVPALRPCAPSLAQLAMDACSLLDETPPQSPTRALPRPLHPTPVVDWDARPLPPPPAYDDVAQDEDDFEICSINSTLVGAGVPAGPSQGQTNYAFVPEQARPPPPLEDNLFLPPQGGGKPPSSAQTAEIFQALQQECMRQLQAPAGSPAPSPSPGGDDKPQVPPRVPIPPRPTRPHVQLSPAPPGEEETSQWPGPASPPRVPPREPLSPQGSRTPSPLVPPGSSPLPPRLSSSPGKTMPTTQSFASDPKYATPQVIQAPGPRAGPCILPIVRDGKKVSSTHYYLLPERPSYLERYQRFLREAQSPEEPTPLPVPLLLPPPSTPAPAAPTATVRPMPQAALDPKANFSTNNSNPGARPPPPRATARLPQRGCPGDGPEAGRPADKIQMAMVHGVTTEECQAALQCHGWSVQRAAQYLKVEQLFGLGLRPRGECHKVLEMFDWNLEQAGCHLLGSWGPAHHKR
Experimental: (§1) The cells were harvested and lysed. The lysates were directly labeled with an ATP-biotin probe. Bound kinases were identified and quantitated by ACTIVX as described in Patricelli et al., Biochemistry, 2007, 46(2): 350-358. The compounds were tested in duplicates against duplicate or quadruplicate control samples.

BARK1 = BARK1 (Homo sapiens (Human), UniProt P25098); experiment: KINATIV assay; assay type: cell-based; conditions: 1 μM, 90 minutes, BCWM.1 cells
Experimental: as §1

CDC2 = CDC2 (Homo sapiens (Human), UniProt P06493); experiment: KINATIV assay; assay type: cell-based; conditions: 1 μM, 90 minutes, BCWM.1 cells
Experimental: as §1

CDK11, CDK8 = experiment: KINATIV assay; assay type: cell-based; conditions: 1 μM, 90 minutes, BCWM.1 cells
Experimental: as §1

CDK9 = CDK9 (Homo sapiens (Human), UniProt P50750); experiment: KINATIV assay; assay type: cell-based; conditions: 1 μM, 90 minutes, BCWM.1 cells
Experimental: as §1

CLK3 = CLK3 (Homo sapiens (Human), UniProt P49761); experiment: KINATIV assay; assay type: cell-based; conditions: 1 μM, 90 minutes, BCWM.1 cells
Experimental: as §1

CaMK2g = CaMK2g (Homo sapiens (Human), UniProt Q13555); experiment: KINATIV assay; assay type: cell-based; conditions: 1 μM, 90 minutes, BCWM.1 cells
Experimental: as §1

CaMK4 = CaMK4 (Homo sapiens (Human), UniProt Q16566); experiment: KINATIV assay; assay type: cell-based; conditions: 1 μM, 90 minutes, BCWM.1 cells
CaMK4, sequence (Q16566 whole entry): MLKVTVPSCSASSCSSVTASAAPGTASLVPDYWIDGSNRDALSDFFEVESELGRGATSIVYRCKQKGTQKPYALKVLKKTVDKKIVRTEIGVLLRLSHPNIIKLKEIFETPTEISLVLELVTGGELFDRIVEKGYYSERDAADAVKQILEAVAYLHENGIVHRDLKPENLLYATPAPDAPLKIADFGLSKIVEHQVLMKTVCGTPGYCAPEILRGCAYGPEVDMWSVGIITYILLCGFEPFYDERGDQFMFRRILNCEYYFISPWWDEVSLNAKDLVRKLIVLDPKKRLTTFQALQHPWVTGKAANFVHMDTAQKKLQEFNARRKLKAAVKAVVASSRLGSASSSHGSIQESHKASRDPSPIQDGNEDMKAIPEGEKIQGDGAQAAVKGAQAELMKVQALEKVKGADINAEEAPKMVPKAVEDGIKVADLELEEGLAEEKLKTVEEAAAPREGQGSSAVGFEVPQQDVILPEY
Experimental: as §1

GSK3A = GSK3A (Homo sapiens (Human), UniProt P49840); experiment: KINATIV assay; assay type: cell-based; conditions: 1 μM, 90 minutes, BCWM.1 cells
GSK3A, sequence (P49840 whole entry): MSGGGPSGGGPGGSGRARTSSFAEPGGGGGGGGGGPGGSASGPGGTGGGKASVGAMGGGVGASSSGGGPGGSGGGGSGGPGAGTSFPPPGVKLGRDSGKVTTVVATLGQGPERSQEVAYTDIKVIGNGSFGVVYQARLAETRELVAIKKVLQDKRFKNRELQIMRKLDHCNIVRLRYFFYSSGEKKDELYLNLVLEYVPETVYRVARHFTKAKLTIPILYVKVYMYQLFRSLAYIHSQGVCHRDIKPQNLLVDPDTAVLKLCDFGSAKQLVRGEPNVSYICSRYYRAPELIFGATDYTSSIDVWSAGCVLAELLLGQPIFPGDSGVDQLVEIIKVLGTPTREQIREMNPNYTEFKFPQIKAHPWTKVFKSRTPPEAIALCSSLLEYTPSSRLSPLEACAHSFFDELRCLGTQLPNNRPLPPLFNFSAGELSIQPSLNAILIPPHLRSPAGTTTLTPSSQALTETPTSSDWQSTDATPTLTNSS
Experimental: as §1

ILK = ILK (Homo sapiens (Human), UniProt Q13418); experiment: KINATIV assay; assay type: cell-based; conditions: 1 μM, 90 minutes, BCWM.1 cells
ILK, sequence (Q13418 whole entry): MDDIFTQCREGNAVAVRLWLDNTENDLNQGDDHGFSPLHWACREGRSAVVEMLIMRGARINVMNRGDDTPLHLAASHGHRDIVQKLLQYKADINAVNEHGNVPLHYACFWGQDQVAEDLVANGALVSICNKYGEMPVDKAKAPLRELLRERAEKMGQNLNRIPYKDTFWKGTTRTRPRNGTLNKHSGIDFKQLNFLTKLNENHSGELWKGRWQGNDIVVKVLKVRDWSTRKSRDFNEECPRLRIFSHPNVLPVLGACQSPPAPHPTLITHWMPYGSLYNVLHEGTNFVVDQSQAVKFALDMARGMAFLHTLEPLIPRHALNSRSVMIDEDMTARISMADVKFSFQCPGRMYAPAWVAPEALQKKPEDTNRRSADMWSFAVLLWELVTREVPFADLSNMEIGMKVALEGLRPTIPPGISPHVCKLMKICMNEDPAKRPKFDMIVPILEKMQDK
Experimental: as §1

IRE1 = IRE1 (Homo sapiens (Human), UniProt O75460); experiment: KINATIV assay; assay type: cell-based; conditions: 1 μM, 90 minutes, BCWM.1 cells
Experimental: as §1

JNK1, JNK2, JNK3 = experiment: KINATIV assay; assay type: cell-based; conditions: 1 μM, 90 minutes, BCWM.1 cells
Experimental: as §1

KSR1, KSR2 = experiment: KINATIV assay; assay type: cell-based; conditions: 1 μM, 90 minutes, BCWM.1 cells
Experimental: as §1

MAP2K1 = MAP2K1 (Homo sapiens (Human), UniProt Q02750); experiment: KINATIV assay; assay type: cell-based; conditions: 1 μM, 90 minutes, BCWM.1 cells
Experimental: as §1

MAP3K1 = MAP3K1 (Homo sapiens (Human), UniProt Q13233); experiment: KINATIV assay; assay type: cell-based; conditions: 1 μM, 90 minutes, BCWM.1 cells
Experimental: as §1

MAP3K15, MAP3K5, MAP3K6 = experiment: KINATIV assay; assay type: cell-based; conditions: 1 μM, 90 minutes, BCWM.1 cells
Experimental: as §1

MARK2, MARK3 = experiment: KINATIV assay; assay type: cell-based; conditions: 1 μM, 90 minutes, BCWM.1 cells
Experimental: as §1

MARK3, MARK4 = experiment: KINATIV assay; assay type: cell-based; conditions: 1 μM, 90 minutes, BCWM.1 cells
Experimental: as §1

MLK3 = MLK3 (Homo sapiens (Human), UniProt Q16584); experiment: KINATIV assay; assay type: cell-based; conditions: 1 μM, 90 minutes, BCWM.1 cells
Experimental: as §1

MLKL = MLKL (Homo sapiens (Human), UniProt Q8NB16); experiment: KINATIV assay; assay type: cell-based; conditions: 1 μM, 90 minutes, BCWM.1 cells
Experimental: as §1

NEK3 = NEK3 (Homo sapiens (Human), UniProt P51956); experiment: KINATIV assay; assay type: cell-based; conditions: 1 μM, 90 minutes, BCWM.1 cells
Experimental: as §1

NEK9 = NEK9 (Homo sapiens (Human), UniProt Q8TD19); experiment: KINATIV assay; assay type: cell-based; conditions: 1 μM, 90 minutes, BCWM.1 cells
NEK9, sequence (Q8TD19 whole entry): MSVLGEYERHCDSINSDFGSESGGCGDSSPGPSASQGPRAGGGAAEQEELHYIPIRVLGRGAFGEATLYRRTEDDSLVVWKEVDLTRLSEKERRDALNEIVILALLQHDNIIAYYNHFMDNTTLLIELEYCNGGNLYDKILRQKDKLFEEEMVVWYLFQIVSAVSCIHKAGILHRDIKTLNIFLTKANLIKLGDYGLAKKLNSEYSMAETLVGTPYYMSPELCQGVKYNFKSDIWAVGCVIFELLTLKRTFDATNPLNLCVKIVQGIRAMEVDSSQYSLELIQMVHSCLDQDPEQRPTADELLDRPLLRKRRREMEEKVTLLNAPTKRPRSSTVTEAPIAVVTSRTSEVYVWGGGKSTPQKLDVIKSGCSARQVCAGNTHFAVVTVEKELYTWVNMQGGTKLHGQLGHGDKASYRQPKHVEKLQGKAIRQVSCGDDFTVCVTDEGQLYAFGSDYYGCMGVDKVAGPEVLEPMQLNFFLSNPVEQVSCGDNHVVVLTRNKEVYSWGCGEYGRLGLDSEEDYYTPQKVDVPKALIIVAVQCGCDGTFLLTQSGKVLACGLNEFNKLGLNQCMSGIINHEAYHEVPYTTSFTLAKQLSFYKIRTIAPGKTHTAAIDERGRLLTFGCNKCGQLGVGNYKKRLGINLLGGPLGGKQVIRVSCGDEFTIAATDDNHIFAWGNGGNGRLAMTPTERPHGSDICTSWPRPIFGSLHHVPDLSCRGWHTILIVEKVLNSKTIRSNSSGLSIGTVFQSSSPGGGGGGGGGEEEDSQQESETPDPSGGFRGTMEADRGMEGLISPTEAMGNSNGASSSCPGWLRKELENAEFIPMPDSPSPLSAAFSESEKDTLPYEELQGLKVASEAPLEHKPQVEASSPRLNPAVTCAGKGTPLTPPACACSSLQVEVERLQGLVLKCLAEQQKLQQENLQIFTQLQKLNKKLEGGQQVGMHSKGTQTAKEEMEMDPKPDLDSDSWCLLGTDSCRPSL
Experimental: as §1

PIK3CB = PIK3CB (Homo sapiens (Human), UniProt P42338); experiment: KINATIV assay; assay type: cell-based; conditions: 1 μM, 90 minutes, BCWM.1 cells
Experimental: as §1

PIP4K2C = PIP4K2C (Homo sapiens (Human), UniProt Q8TBX8); experiment: KINATIV assay; assay type: cell-based; conditions: 1 μM, 90 minutes, BCWM.1 cells
PIP4K2C, sequence (Q8TBX8 whole entry): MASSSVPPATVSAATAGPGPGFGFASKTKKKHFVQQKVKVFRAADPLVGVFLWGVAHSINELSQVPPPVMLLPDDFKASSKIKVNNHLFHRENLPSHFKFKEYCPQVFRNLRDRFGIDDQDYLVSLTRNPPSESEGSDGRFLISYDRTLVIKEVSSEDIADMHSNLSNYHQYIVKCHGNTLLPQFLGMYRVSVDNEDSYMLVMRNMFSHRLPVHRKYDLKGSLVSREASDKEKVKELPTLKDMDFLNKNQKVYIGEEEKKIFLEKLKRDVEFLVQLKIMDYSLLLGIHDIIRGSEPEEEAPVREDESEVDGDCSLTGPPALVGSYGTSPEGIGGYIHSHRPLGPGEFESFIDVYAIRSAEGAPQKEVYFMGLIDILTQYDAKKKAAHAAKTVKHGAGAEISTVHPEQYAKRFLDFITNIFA
Experimental: as §1

PKD1, PKD2 = experiment: KINATIV assay; assay type: cell-based; conditions: 1 μM, 90 minutes, BCWM.1 cells
Experimental: as §1

ROCK1 = ROCK1 (Homo sapiens (Human), UniProt Q13464); experiment: KINATIV assay; assay type: cell-based; conditions: 1 μM, 90 minutes, BCWM.1 cells
Experimental: as §1

RSK4 domain1 = RSK4 domain1 (Homo sapiens (Human), UniProt Q9UK32); experiment: KINATIV assay; assay type: cell-based; conditions: 1 μM, 90 minutes, BCWM.1 cells
Experimental: as §1

TAO1, TAO3 = experiment: KINATIV assay; assay type: cell-based; conditions: 1 μM, 90 minutes, BCWM.1 cells
Experimental: as §1

ULK3 = ULK3 (Homo sapiens (Human), UniProt Q6PHR2); experiment: KINATIV assay; assay type: cell-based; conditions: 1 μM, 90 minutes, BCWM.1 cells
ULK3, sequence (Q6PHR2 whole entry): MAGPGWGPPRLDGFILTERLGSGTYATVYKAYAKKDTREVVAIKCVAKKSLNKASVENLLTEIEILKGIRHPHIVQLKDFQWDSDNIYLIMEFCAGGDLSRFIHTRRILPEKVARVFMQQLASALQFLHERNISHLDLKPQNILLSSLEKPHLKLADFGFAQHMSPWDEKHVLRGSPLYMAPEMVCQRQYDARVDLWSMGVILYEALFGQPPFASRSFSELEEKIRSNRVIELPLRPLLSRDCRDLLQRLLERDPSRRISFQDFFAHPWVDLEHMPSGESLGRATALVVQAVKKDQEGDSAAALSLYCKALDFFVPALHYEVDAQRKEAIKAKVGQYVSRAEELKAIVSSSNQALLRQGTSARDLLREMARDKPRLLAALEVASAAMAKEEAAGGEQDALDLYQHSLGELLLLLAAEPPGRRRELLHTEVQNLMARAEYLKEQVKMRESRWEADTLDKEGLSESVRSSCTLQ
Experimental: as §1

VRK2 = VRK2 (Homo sapiens (Human), UniProt Q86Y07); experiment: KINATIV assay; assay type: cell-based; conditions: 1 μM, 90 minutes, BCWM.1 cells
VRK2, sequence (Q86Y07 whole entry): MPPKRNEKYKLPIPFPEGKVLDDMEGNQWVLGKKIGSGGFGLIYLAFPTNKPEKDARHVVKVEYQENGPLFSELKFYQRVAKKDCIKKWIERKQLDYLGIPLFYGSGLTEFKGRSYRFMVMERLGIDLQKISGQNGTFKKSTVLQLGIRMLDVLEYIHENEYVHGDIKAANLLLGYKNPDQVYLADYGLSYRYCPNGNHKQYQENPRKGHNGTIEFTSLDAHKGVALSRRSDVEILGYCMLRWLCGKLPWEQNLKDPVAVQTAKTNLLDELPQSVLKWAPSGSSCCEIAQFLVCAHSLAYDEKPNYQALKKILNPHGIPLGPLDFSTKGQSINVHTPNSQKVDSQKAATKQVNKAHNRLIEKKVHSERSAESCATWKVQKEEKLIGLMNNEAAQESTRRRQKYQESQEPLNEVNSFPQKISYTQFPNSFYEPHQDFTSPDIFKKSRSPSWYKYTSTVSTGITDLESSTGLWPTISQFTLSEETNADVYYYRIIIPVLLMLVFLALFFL
Experimental: as §1

Wnk1, Wnk2, Wnk3 = experiment: KINATIV assay; assay type: cell-based; conditions: 1 μM, 90 minutes, BCWM.1 cells
Experimental: as §1

eEF2K = eEF2K (Homo sapiens (Human), UniProt O00418); experiment: KINATIV assay; assay type: cell-based; conditions: 1 μM, 90 minutes, BCWM.1 cells
Experimental: as §1

p38d, p38g = experiment: KINATIV assay; assay type: cell-based; conditions: 1 μM, 90 minutes, BCWM.1 cells
Experimental: as §1

p70S6K = p70S6K (Homo sapiens (Human), UniProt P23443); experiment: KINATIV assay; assay type: cell-based; conditions: 1 μM, 90 minutes, BCWM.1 cells
Experimental: as §1

p70S6Kb = p70S6Kb (Homo sapiens (Human), UniProt Q9UBS0); experiment: KINATIV assay; assay type: cell-based; conditions: 1 μM, 90 minutes, BCWM.1 cells
Experimental: as §1

MAPKAPK3 = MAPKAPK3 (Homo sapiens (Human), UniProt Q16644)
Experimental: as §1

PCTAIRE1 = PCTAIRE1 (Homo sapiens (Human), UniProt Q00536)
Experimental: as §1

PCTAIRE2 = PCTAIRE2 (Homo sapiens (Human), UniProt Q00537)
Experimental: as §1

PRP4 = PRP4 (Homo sapiens (Human), UniProt Q13523)
Experimental: as §1

PRPK = PRPK (Homo sapiens (Human), UniProt Q96S44)
Experimental: as §1

PCTAIRE1, PCTAIRE3 = experiment: KINATIV assay; assay type: cell-based; conditions: 1 μM, 90 minutes, BCWM.1 cells
Text: (§2) The cells were harvested and lysed.

PCTAIRE2, PCTAIRE3 = experiment: KINATIV assay; assay type: cell-based; conditions: 1 μM, 90 minutes, BCWM.1 cells
Text: as §2

Compound: C=CC(=O)N1CCCCC(Nc2nccc(Nc3ncc(C(=O)Nc4c(C)cccc4C)s3)n2)C1 (stereo not drawn) [Example I-7]
- % change of MS signal compared to control sample (ACK): 80.7% and 88.5%
- % change of MS signal compared to control sample (BARK1): −29.7%
- % change of MS signal compared to control sample (CDC2): −16.2%
- % change of MS signal compared to control sample (CDK11, CDK8): −3.5%
- % change of MS signal compared to control sample (CDK9): −37.0%
- % change of MS signal compared to control sample (CLK3): −15.7%
- % change of MS signal compared to control sample (CaMK2g): −12.8%
- % change of MS signal compared to control sample (CaMK4): −24.9%
- % change of MS signal compared to control sample (GSK3A): −11.3%
- % change of MS signal compared to control sample (ILK): 17.1% and 28.2%
- % change of MS signal compared to control sample (IRE1): −15.7%
- % change of MS signal compared to control sample (JNK1, JNK2, JNK3): −4.8%
- % change of MS signal compared to control sample (KSR1, KSR2): −10.1%
- % change of MS signal compared to control sample (MAP2K1): −3.7%
- % change of MS signal compared to control sample (MAP3K1): 7.9%
- % change of MS signal compared to control sample (MAP3K15, MAP3K5, MAP3K6): 4.0%
- % change of MS signal compared to control sample (MARK2, MARK3): −11.0%
- % change of MS signal compared to control sample (MARK3, MARK4): 20.7%
- % change of MS signal compared to control sample (MLK3): −4.6%
- % change of MS signal compared to control sample (MLKL): −6.3%
- % change of MS signal compared to control sample (NEK3): 15.6%
- % change of MS signal compared to control sample (NEK9): 2.5% and 1.1%
- % change of MS signal compared to control sample (PIK3CB): −42.6%
- % change of MS signal compared to control sample (PIP4K2C): 70.9% and 60.1%
- % change of MS signal compared to control sample (PKD1, PKD2): −8.3%
- % change of MS signal compared to control sample (ROCK1): 6.6%
- % change of MS signal compared to control sample (RSK4 domain1): −13.5%
- % change of MS signal compared to control sample (TAO1, TAO3): −1.8%
- % change of MS signal compared to control sample (ULK3): 15.5% and 18.4%
- % change of MS signal compared to control sample (VRK2): −2.3%
- % change of MS signal compared to control sample (Wnk1, Wnk2, Wnk3): 10.4%
- % change of MS signal compared to control sample (eEF2K): 4.9%
- % change of MS signal compared to control sample (p38d, p38g): 1.7%
- % change of MS signal compared to control sample (p70S6K): −70.1%
- % change of MS signal compared to control sample (p70S6Kb): −42.7%
- % change of MS signal compared to control sample (MAPKAPK3): 0.9%
- % change of MS signal compared to control sample (PCTAIRE1): 38.2%
- % change of MS signal compared to control sample (PCTAIRE2): 9.9%
- % change of MS signal compared to control sample (PRP4): −4.1%
- % change of MS signal compared to control sample (PRPK): −3.8%
- % change of MS signal compared to control sample (PCTAIRE1, PCTAIRE3): 14.9%
- % change of MS signal compared to control sample (PCTAIRE2, PCTAIRE3): 27.0%
